# Key:
# A. baumannii WRAMC #13 = format: cell-based, Acinetobacter baumannii
# From the text: (§1) As shown in the table below, many drug-resistant pathogens including multidrug-resistant Acinetobacter baumannii (clinical isolates) were susceptible to the bactericidal activity of the newly developed antimicrobial peptides. […] This is shown by their lower MIC and MBC against a number of antibiotic-resistant bacteria including methicillin-resistant Staphylococcus aureus, vancomycin-resistant Enterococci, and multidrug-resistant Acinetobacter baumannii. Many of these resistant strains are involved in nosocomial infections, which affect the immunocompromised and the elderly individuals with weakened defenses. The tests were done in a broth microdilution assay as described in our earlier publication (Concannon et al., 2003).
# A. baumannii WRAMC #2 = format: cell-based, Acinetobacter baumannii
# From the text: as §1
# A. baumannii ATCC #19606 = format: cell-based, Acinetobacter baumannii
# From the text: as §1
# A. baumannii WRAMC #16 = format: cell-based, Acinetobacter baumannii
# From the text: as §1
# A. baumannii WRAMC #5 = format: cell-based, Acinetobacter baumannii
# From the text: as §1
# A. baumannii WRAMC #8 = format: cell-based, Acinetobacter baumannii
# From the text: as §1
# A. baumannii WRAMC #14 = format: cell-based, Acinetobacter baumannii
# From the text: as §1
# A. baumannii WRAMC #17 = format: cell-based, Acinetobacter baumannii
# From the text: as §1
# A. baumannii WRAMC #18 = format: cell-based, Acinetobacter baumannii
# From the text: as §1
# A. baumannii WRAMC #19 = format: cell-based, Acinetobacter baumannii
# From the text: as §1
# A. baumannii WRAMC #15 = format: cell-based, Acinetobacter baumannii
# From the text: as §1
# A. baumannii WRAMC #4 = format: cell-based, Acinetobacter baumannii
# From the text: as §1
# A. baumannii WRAMC #11 = format: cell-based, Acinetobacter baumannii
# From the text: as §1
# Actinomyces naeslundii = experiment: Adherence inhibition of tritiated A. naeslundii to saliva-coated HA disks; format: cell-based; details: disks pretreated with KSL-W 1 mg/ml; 2 hour incubation at 37° C.
# Procedure: In these studies, saliva-coated HA disks pre-treated with salivary proteins, KSL-W (1 mg/ml), or chlorhexidine (1 mg/ml), were used as colonizable surfaces to test the adherence of tritiated A. naeslundii, an early colonizer that is involved in dental plaque formation. In these experiments, labeled A. naeslundii ([…] cells per ml) were incubated for 2 h with HA disks that were pre-treated with different agents.
# MRSA VVRAMC #10 = format: cell-based, Staphylococcus aureus
# From the text: as §1
# MRSA WRAMC #9 = format: cell-based, Staphylococcus aureus
# From the text: as §1
# MRSA WRAMC #12 = format: cell-based, Staphylococcus aureus
# From the text: as §1
# MRSA ATCC #33591 = format: cell-based, Staphylococcus aureus
# From the text: as §1
# MRSA VVRAMC #1 = format: cell-based, Staphylococcus aureus
# From the text: as §1
# MRSA ATCC #43300 = format: cell-based, Staphylococcus aureus
# From the text: as §1
# VRE WRAMC #6 = format: cell-based, Enterococci
# From the text: as §1
# VRE VVRAMC #7 = format: cell-based, Enterococci
# From the text: as §1
# VRE WRAMC #3 = format: cell-based, Enterococci
# From the text: as §1
# VRE ATCC #51299 = format: cell-based, Enterococci
# From the text: as §1
substance,measurement,setting,value
"H-KKVVFWVKFK-NH2 [KSL-W, NH2-Lys-Lys-Val-Val-Phe-Trp-Val-Lys-Phe-Lys-CONH2]",MBC,A. baumannii WRAMC #13,50 µg/mL
same,MBC,A. baumannii WRAMC #2,100 µg/mL
same,MIC,A. baumannii WRAMC #2,25 µg/mL
same,MBC,A. baumannii ATCC #19606,100 µg/mL
same,MBC,A. baumannii WRAMC #16,50 µg/mL
same,MBC,A. baumannii WRAMC #5,25 µg/mL
same,MIC,A. baumannii WRAMC #5,12.5 µg/mL
same,MBC,A. baumannii WRAMC #8,25 µg/mL
same,MBC,A. baumannii WRAMC #14,50 µg/mL
same,MIC,A. baumannii WRAMC #14,25 µg/mL
same,MBC,A. baumannii WRAMC #17,25 µg/mL
same,MBC,A. baumannii WRAMC #18,25 µg/mL
same,MIC,A. baumannii WRAMC #18,12.5 µg/mL
same,MBC,A. baumannii WRAMC #19,100 µg/mL
same,MIC,A. baumannii WRAMC #19,50 µg/mL
same,MBC,A. baumannii WRAMC #15,50 µg/mL
same,MBC,A. baumannii WRAMC #4,25 µg/mL
same,MBC,A. baumannii WRAMC #11,25 µg/mL
same,adherence of tritiated A. naeslundii to pretreated HA disks,Actinomyces naeslundii,great reduction in the number of bacteria that attached
same,MBC,MRSA VVRAMC #10,200 µg/mL
same,MBC,MRSA WRAMC #9,>200 µg/mL
same,MIC,MRSA WRAMC #9,200 µg/mL
same,MBC,MRSA WRAMC #12,>200 µg/mL
same,MIC,MRSA WRAMC #12,200 µg/mL
same,MBC,MRSA ATCC #33591,200 µg/mL
same,MIC,MRSA ATCC #33591,100 µg/mL
same,MBC,MRSA VVRAMC #1,100 µg/mL
same,MBC,MRSA ATCC #43300,50 µg/mL
same,MIC,MRSA ATCC #43300,25 µg/mL
same,MBC,VRE WRAMC #6,100 µg/mL
same,MIC,VRE WRAMC #6,12.5 µg/mL
same,MBC,VRE VVRAMC #7,25 µg/mL
same,MBC,VRE WRAMC #3,200 µg/mL
same,MIC,VRE WRAMC #3,100 µg/mL
same,MBC,VRE ATCC #51299,200 µg/mL
same,MIC,VRE ATCC #51299,100 µg/mL

# Source: patent publication US8778889B2, “Antimicrobial decapeptide oral hygiene treatment” (The United States of America as represented by the …, priority 2003, dated 2014)
